# Data reported in patent US20230086007A1, “USE OF DENATONIUM BENZOATE AS A SEED TREATMENT FOR CROPS AS BIRD AND/OR INSECT REPELLENT” (KWS SAAT SE & Co. KGaA, priority 2020, published 2023).
# Values joined by “and” are separate entries in the source; they are usually repeats but may differ in a detail not shown here. Identical values can stand only once. “Also recorded” adds a separate entry of the source.
# How the values were obtained:
# [1] = system: corvid; assay: Additional bird repellent field trials at three locations in Germany, plant stand counts; assay type: in vivo, Corvus; conditions: corn seed, denatonium benzoate 1 g/50.000 seeds
# Text: The bird repellent effect of denatonium benzoate has further been evaluated in additional field trials at three different location in Germany. Denatonium benzoate alone (DNB) or denatonium benzoate in combination with a solution of micronutrients (DNB+HA450) mixed with a sticker have been applied to the seeds. Denatonium benzoate has been applied in a concentration of 1 g/50.000 seeds. Three chemical references have been included in the trials: Korit (active substance: Ziram), Curb Crop Garden Powder with Sphere's formulation (active substance: aluminium ammonium sulphate) and Schwefal (active substance: organic sulfur). As negative control untreated seed has been used.
# Plant stand counts have been assessed and summarized. […] Results of earlier field trials have been confirmed.
# [2] = LC-MS-MS determination of denatonium benzoate in corn plants grown from treated seed; assay type: in vivo, Zea mays; conditions: for Bitrex concentration: first leaf of corn seedling
# Procedure: To determine, if denatonium benzoate could be systemic (taken up by the plant), a Liquid Chromatography with tandem mass spectrometry (LC-MS-MS) was performed, which is a powerful analytical technique that combines the separating power of liquid chromatography with the highly sensitive and selective mass analysis capability of triple quadrupole mass spectrometry. Therefore, we used 1) seedlings just after field emergence to determine the content of denatonium benzoate in the complete plant and in the sprout separately (Table 3), as well as 2) middle-aged plants (V6-V8), where the leaves have been investigated (Table 4).
# Beside above experiments the concentration of Bitrex in the first leaf of the seedling have been measured wherein different dosages of Bitrex have been applied to the seed. The higher the application rate, the higher was the Bitrex concentration in the tested leaf tissue.
# [3] = LC-MS-MS determination of Bitrex in leaf tissue of oilseed rape seedlings; assay type: in vivo, Brassica napus
# Text: Further experiments on system uptake of Bitrex have been conducted also on oilseed rape (Brassica napus). Seeds of Brassica napus have been treated with concentration of Bitrex from 0.15 g/unit to 75 g/unit. Seeds have been sown and leaf samples have been taken 6 days after emergence and 22 days after emergence. By means of Liquid Chromatography with tandem mass spectrometry (LC-MS-MS) as described above Bitrex amount in leaf tissue has been determined with 4 repetition per Bitrex concentration. Leave samples have been prepared as follows: Leaf material has been harvested, cut in small pieces and put in 3-5 ml ethanol. After 45 min vortexing, centrifuging and taking aliquot of 1 ml for further analysis.
# [4] = LC-MS-MS determination of Bitrex in hybrid rye seedlings; assay type: in vivo
# Procedure: Additional experiments in hybrid rye show also excellent systemic uptake and distribution of Bitrex. Seeds of a hybrid rye variety have been treated in application A with KintoPlus 150 ml/100 kg seeds and Bitrex 75 g/100 kg seeds and in application B with KintoPlus 150 ml/100 kg seeds and Bitrex 150 g/100 kg seeds. Seeds have been sown in longitudinal plots of 15 qm in four repetitions. 3 weeks after sowing seedlings have been harvested (40 plants per plot) and leaf material and root tissue have been analyzed using Liquid Chromatography with tandem mass spectrometry (LC-MS-MS) as described above.
# [5] = system: wireworm of genus Agriotes; assay: Wireworm repellent pot assay on corn in greenhouse; assay type: in vivo; conditions: eight days after sowing
# Procedure: Testing took place in pot assays. Per pot four corn seeds were sown (see FIG. 2A). In each pot four wireworm of genus Agriotes were placed in a central cavity of 5 cm depth (see FIG. 2B). […] The seeds in the pots were germinated and seedlings were grown under controlled conditions in greenhouse.
# Eight days after sowing the plant biomass (FIG. 3; Table 6) as well as seed damage (FIG. 4A; Table 6) were assessed.
# [6] = system: wireworm of genus Agriotes; assay: Wireworm field trial in Italy: insect damage (DAMINS); assay type: in vivo
# [7] = system: maize plants; assay: Wireworm field trial in Italy: phytotoxicity (PHYGEN) and vigor (VIGOR); conditions: for PHYGEN phytotoxicity, stage E: at emergence; for VIGOR, stage E / VIGOR, stage V3 / VIGOR, stage V5: ratings from 1-10 (10 is best)
# Text: Evaluation took place at emergence (E), at V3 stage (=3 leaves unfolded) and at V5 stage (=5 leaves unfolded). The following characteristics have been phenotyped: phytotoxicity (PHYGEN) at stage E, V3 and V5 in % per plot, vigor (VIGOR) at stage E, V3 and V5 in ratings from 1-10 (10 is best), insect damage (DAMINS) at stage V5 in plants per row (left DAMINS column in Table 7) and in % per row (right DAMINS column in Table 7).
# [8] = system: crows; conditions: wheat seed treatment; cited from earlier work
compound,measurement,setting,value
"CC[N+](CC)(CC(=O)Nc1c(C)cccc1C)Cc1ccccc1.O=C([O-])c1ccccc1 [Bitrex, N-Benzyl-2-(2,6-dimethylanilino)-N, N-diethyl-2-oxoethan-1-aminium benzoate]",efficiency as corvid repellent for corn,[1],excellent effect; also recorded: comparable with the best bird repellents like Korit and Sphere
same,μg DNB/plant or sprout,"[2]; corn seedlings just after field emergence, complete plants",5.87 μg DNB/plant or sprout
same,concentration in sprouts,"[2]; corn, early stage",200-800 ppb
same,concentration in the complete plant,"[2]; corn, early stage",10-20 ppm
same,Bitrex concentration,[2]; 0.8 g/unit applied to seed,36.8 ng/g
same,Bitrex concentration,[2]; 1 g/unit applied to seed,96.2 ng/g and 88.7 ng/g and 75.2 ng/g and 55.0 ng/g and 70.4 ng/g and 97.1 ng/g
same,Bitrex concentration,[2]; 2 g/unit applied to seed,178.2 ng/g and 155.6 ng/g
same,concentration in leaves,[2]; middle-aged corn plants,5-20 ppb
same,Final Conc.,"[2]; middle-aged corn plants (V6-V8), leaves, sample 14 DNB 0.8g, plants P1-P3, listed as DNB",5.49 ppb/ng/g and 5.34 ppb/ng/g and 5.46 ppb/ng/g
same,Bitrex concentation 22 days after emergence,"[3]; oilseed rape leaf, Bitrex 0.15 g/unit, repetitions 1-4",11.03 ng/g and 10.65 ng/g and 5.58 ng/g and 7.75 ng/g
same,Bitrex concentation 6 days after emergence,"[3]; oilseed rape leaf, Bitrex 7.5 g/unit, repetitions 1-4",354.65 ng/g and 194.60 ng/g and 266.85 ng/g and 251.41 ng/g
same,Bitrex in leaf tissue after 22 days,"[3]; oilseed rape, all applications 0.15-75 g/unit",still detectable but at a low amount
same,concentration of Bitrex in kernels,[4]; hybrid rye,"up to 460,000 ng/g"
same,Mean Bitrex concentration,"[4]; hybrid rye seedlings 3 weeks after sowing, root, application B: KintoPlus 150 ml/100 kg seeds and Bitrex 150 g/100 kg seeds",21169.7 ng/g and 25378.0 ng/g and 18336.0 ng/g and 15826.3 ng/g
same,Mean Bitrex concentration,"[4]; hybrid rye, kernel, application A: KintoPlus 150 ml/100 kg seeds and Bitrex 75 g/100 kg seeds",460473.8 ng/g
same,biomass of plantlets compared with controls,[5],comparable or even more biomass than control plants without wireworm infestations
same,"DAMINS insect damage, stage V5","[6]; 5 g Bitrex per 50,000 seeds",6.8 plants per row and 5.62 % per row
same,"DAMINS insect damage, stage V5","[6]; 10 g Bitrex per 50,000 seeds",7.3 plants per row and 6.07 % per row
same,"DAMINS insect damage, stage V5","[6]; 20 g Bitrex per 50,000 seeds",5.8 plants per row and 4.79 % per row
same,"PHYGEN phytotoxicity, stage V3","[7]; 5 g Bitrex per 50,000 seeds",0 % per plot
same,"PHYGEN phytotoxicity, stage V5","[7]; 5 g Bitrex per 50,000 seeds",0 % per plot
same,"PHYGEN phytotoxicity, stage E","[7]; 5 g Bitrex per 50,000 seeds",0 % per plot
same,"VIGOR, stage E","[7]; 5 g Bitrex per 50,000 seeds",10
same,"VIGOR, stage V3","[7]; 5 g Bitrex per 50,000 seeds",10
same,"VIGOR, stage V5","[7]; 5 g Bitrex per 50,000 seeds",10
same,"PHYGEN phytotoxicity, stage V3","[7]; 10 g Bitrex per 50,000 seeds",0 % per plot
same,"PHYGEN phytotoxicity, stage V5","[7]; 10 g Bitrex per 50,000 seeds",0 % per plot
same,"PHYGEN phytotoxicity, stage E","[7]; 10 g Bitrex per 50,000 seeds",0 % per plot
same,"VIGOR, stage E","[7]; 10 g Bitrex per 50,000 seeds",10
same,"VIGOR, stage V3","[7]; 10 g Bitrex per 50,000 seeds",10
same,"VIGOR, stage V5","[7]; 10 g Bitrex per 50,000 seeds",10
same,"PHYGEN phytotoxicity, stage V3","[7]; 20 g Bitrex per 50,000 seeds",0 % per plot
same,"PHYGEN phytotoxicity, stage V5","[7]; 20 g Bitrex per 50,000 seeds",0 % per plot
same,"PHYGEN phytotoxicity, stage E","[7]; 20 g Bitrex per 50,000 seeds",0 % per plot
same,"VIGOR, stage E","[7]; 20 g Bitrex per 50,000 seeds",10
same,"VIGOR, stage V3","[7]; 20 g Bitrex per 50,000 seeds",10
same,"VIGOR, stage V5","[7]; 20 g Bitrex per 50,000 seeds",10
same,negative effect on plant vitality with respect to phytotoxicity and plant vigor,"[7]; Bitrex applied at high concentration (5-20 g per 50,000 seeds), field trial",has not been observed
same,corvid repellent effect in wheat,[8],only provided a modest improvement
